How the values were obtained:
[1] = system: Rattus norvegicus; assay: Inhibition of paw swelling relative to the tebufelone in rat. Value was reported as Carrageenan paw edema index; format: functional
[2] = species: Rattus norvegicus; assay: Analgesic activity in phenylquinone-induced abdominal constriction assay (PAC); format: functional, Abdomen; design: concentration or dose not given beside the values

Row | SMILES | CPE index [1] | Inhibition [2]
1 | CCN(C(=O)c1cc(C(C)(C)C)c2c(c1)C(C)(C)CO2)C1CC1 | 1.14 | 
2 | CN(C)CCNC(=O)c1cc(C(C)(C)C)c2c(c1)C(C)(C)CO2 | 0 | 
3 | CCNC(=O)Nc1cc(C(C)(C)C)c2c(c1)C(C)(C)CO2 | 0.73 | 36%
4 | CC(C)(C)c1cc(-c2csc(N)n2)cc2c1OCC2(C)C | 0.26 | 
5 | CC(C)(C)c1cc(C(=O)NCCO)cc2c1OCC2(C)C | 0.33 | 
6 | CC(C)(C)c1cc(C(=O)Nc2ccccc2)cc2c1OCC2(C)C | 0.01 | 
7 | CC(C)(C)c1cc(/C=C\c2cccnc2)cc2c1OCC2(C)C | 0.78 | 45%
8 | CC(C)(C)c1cc(C(=O)c2nccs2)cc2c1OCC2(C)C | 0.75 | 28%
9 | CC(C)(C)c1cc(C(=O)NC2CCCC2)cc2c1OCC2(C)C | 0 | 
10 | CC(C)(C)c1cc(-c2ccco2)cc2c1OCC2(C)C | 0.93 | 7%
11 | CC(C)(C)c1cc(C(=O)NCCC2CC2)cc2c1OCC2(C)C | 0.06 | 
12 | CN(C)C(=N)c1cc(C(C)(C)C)c2c(c1)C(C)(C)CO2 | 0.47 | 
13 | CC(C)(C)c1cc(C(=O)NC2CCC2)cc2c1OCC2(C)C | 0 | 
14 | Cc1cc(/C=C\c2cc(C(C)(C)C)c3c(c2)C(C)(C)CO3)[nH]n1 | 0.56 | 35%
15 | CC(C)(C)c1cc(C(=O)c2ccco2)cc2c1OCC2(C)C | 0.7 | 24%
16 | COC(=O)c1cc(C(C)(C)C)c2c(c1)C(C)(C)CO2 | 0.16 | 
17 | CC(C)(C)c1cc(C(=O)N2CCCC2)cc2c1OCC2(C)C | 0.78 | 

Row | SMILES | CPE index [1] | Inhibition [2]
18 | CC(C)(C)c1cc(/C=C(/C(=O)O)c2cccs2)cc2c1OCC2(C)C | 0.76 | 19%
19 | CC(C)(C)c1cc(C(=O)c2ccoc2)cc2c1OCC2(C)C | 0.68 | 3%
20 | CC(C)(C)c1cc(C(=O)NCC2CC2)cc2c1OCC2(C)C | 0.44 | 
21 | CC(C)(C)c1cc(C(=O)N2CCCCC2)cc2c1OCC2(C)C | 0.52 | 34%
22 | CC(C)(C)c1cc(-c2cscn2)cc2c1OCC2(C)C | 1.53 | 59%
23 | CC(C)NC(=O)c1cc(C(C)(C)C)c2c(c1)C(C)(C)CO2 | 1.09 | 43%
24 | CC(C)(C)c1cc(C(=O)N2CCSCC2)cc2c1OCC2(C)C | 0.71 | 29%
25 | CC(C)(C)c1cc(C(=O)NC2=NCCS2)cc2c1OCC2(C)C | 0.81 | 65%
26 | CC(C)(C)c1cc(C(=O)NCC(O)CO)cc2c1OCC2(C)C (centres undefined) | 0.51 | 
27 | CC(C)(C)c1cc(C(=O)Nc2nccs2)cc2c1OCC2(C)C | 0.49 | 
28 | CC(C)(C)c1cc(C(=O)c2ccsc2)cc2c1OCC2(C)C | 0.62 | 40%
29 | CCCN(C)C(=O)c1cc(C(C)(C)C)c2c(c1)C(C)(C)CO2 | 0.91 | 36%
30 | CC(C)(C)c1cc(-c2cocn2)cc2c1OCC2(C)C | 0.19 | 
31 | Cc1nc(-c2cc(C(C)(C)C)c3c(c2)C(C)(C)CO3)no1 | 0.83 | 
32 | CCCNC(=O)Nc1cc(C(C)(C)C)c2c(c1)C(C)(C)CO2 | 0.41 | 
33 | CC(C)(C)c1cc(-c2cn3cc[s+]([O-])c3n2)cc2c1OCC2(C)C (centres undefined) | 0.96 | 
34 | CC(C)(C)c1cc(C(=O)O)cc2c1OCC2(C)C | 0.47 | 
